Experimental data: article PMC12719775, “Alexidine is a TAZ-specific small-molecule inhibitor that suppresses breast cancer invasion and metastasis” (iScience, 2025)

Tests used:
Type in all cases: biochemical
TAZ = target: T1, TAZ (Homo sapiens, UniProt Q9GZV5); experiment: cellular thermal shift assay (CETSA) with western blot; details: 100 μM alexidine, 4 h at 4 °C, HEK293T lysate, heated 25-60 °C; destabilising shift
T1 construct: gene WWTR1; endogenous full-length TAZ in HEK293T freeze-thaw lysate (Methods: endogenous)
T1 sequence (Q9GZV5 whole entry): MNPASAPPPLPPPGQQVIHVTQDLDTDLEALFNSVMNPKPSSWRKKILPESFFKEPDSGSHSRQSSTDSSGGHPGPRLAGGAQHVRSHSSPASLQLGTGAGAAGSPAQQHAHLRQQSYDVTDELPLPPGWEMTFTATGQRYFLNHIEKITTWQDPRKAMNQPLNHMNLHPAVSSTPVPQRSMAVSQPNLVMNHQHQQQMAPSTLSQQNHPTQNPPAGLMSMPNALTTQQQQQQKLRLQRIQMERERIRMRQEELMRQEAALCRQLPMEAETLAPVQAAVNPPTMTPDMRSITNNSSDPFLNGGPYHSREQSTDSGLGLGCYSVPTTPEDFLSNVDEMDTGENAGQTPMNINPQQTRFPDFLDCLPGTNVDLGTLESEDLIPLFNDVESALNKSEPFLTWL

[1] = target: T2, TAZ-TEAD biosensor (FLAG-SmBiT-TAZ / His-LgBiT-TEAD1) (Homo sapiens, UniProt Q9GZV5); experiment: TR-FRET dose response (anti-FLAG-Tb / anti-His-D2), disruption of TAZ-TEAD1 interaction; details: HEK293T lysate, 18 h; protein-protein interaction inhibition
T2 construct: gene WWTR1; FLAG-SmBiT-TAZ aa 13-119 and His-LgBiT-TEAD1 aa 194-411 co-expressed in HEK293T; cell lysate; tags kept; with Transcriptional enhancer factor TEF-1
T2 sequence (Q9GZV5 13-119): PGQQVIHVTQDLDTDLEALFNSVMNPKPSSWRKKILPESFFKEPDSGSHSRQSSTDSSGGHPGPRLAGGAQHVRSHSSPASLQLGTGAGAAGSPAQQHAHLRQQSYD
T2 sequence (P28347 209-426 partner): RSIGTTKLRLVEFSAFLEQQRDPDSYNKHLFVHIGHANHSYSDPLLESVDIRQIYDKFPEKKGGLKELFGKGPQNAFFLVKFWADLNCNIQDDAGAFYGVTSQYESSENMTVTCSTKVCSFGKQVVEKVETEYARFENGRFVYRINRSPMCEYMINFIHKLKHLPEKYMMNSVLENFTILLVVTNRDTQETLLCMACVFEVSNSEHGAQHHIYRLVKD

[2] = target: T3, GST-TAZ / Venus-Flag-TEAD1 (VF-TEAD1) (Homo sapiens, UniProt Q9GZV5); experiment: GST pull-down with western blot densitometry; details: HEK293T lysate, 18 h at 4 °C; protein-protein interaction inhibition
T3 construct: gene WWTR1; with Transcriptional enhancer factor TEF-1
T3 sequence (Q9GZV5 whole entry): as the sequence (Q9GZV5 whole entry) above
T3 sequence (P28347 whole entry partner): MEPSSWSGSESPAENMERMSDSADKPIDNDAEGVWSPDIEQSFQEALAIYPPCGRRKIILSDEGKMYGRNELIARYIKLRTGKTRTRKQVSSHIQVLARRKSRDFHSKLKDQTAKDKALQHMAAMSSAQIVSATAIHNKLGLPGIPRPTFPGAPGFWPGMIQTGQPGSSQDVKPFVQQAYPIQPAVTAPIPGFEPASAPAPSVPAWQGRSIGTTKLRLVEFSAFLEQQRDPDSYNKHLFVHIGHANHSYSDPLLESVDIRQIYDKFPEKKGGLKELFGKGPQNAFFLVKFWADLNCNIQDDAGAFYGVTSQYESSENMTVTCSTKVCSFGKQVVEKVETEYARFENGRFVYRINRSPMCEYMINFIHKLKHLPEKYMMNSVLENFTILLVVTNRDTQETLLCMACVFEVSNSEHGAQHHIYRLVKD

With `CCCCC(CC)CNC(=N)NC(=N)NCCCCCCNC(=N)NC(=N)NCC(CC)CCCC` (stereo not drawn) [alexidine] the Tm (TAZ) was “A reduction in TAZ rather than TEAD stability and melting temperature (Tm) was observed”, the TR-FRET signal [1] was “alexidine disrupted TAZ- TEAD PPI in a dose-dependent manner” and the “% PPI signal” value [2] was “inhibition of GST-TAZ and VF-TEAD1 interaction was achieved by alexidine treatment”.
